Key:
Format in all cases: cell-based
SH-SY5Y cell line [1] = assay: Cell viability (MTT assay); conditions: compound 0.5 μM; for cell viability after MPP+: MPP+ (2 mM) 24 hours; for cell viability after rotenone: rotenone (2 μM) 24 hours
Protocol: The treatment of cell lines with the toxic substances MPP+ or rotenone induces cytotoxicity due to various inflammatory and immune response abnormalities. The viability of the cells under these conditions can be measured using the MTT assay.
Specifically, the SH-SY5Y cell line was treated with 0.5 μM of Compound 1aaa (Compound 1), 1aca (Compound 24), 1ace (Compound 27), 1ahe (Compound 44) or 1aje (Compound 62) and then with MPP+ (2 mM) or rotenone (2 μM) for 24 hours. Cell viability in the case of being treated with each compound is illustrated in FIGS. 4 and 5.

SH-SY5Y cell line [2] = assay: Inhibition of reactive oxygen species generation (CM-H2DCFDA fluorescence); conditions: compound 10 μM
Protocol: It is known that the administration of MPP+ or rotenone to cell lines results in the generation of reactive oxygen species (ROS) due to mitochondrial inhibition, the activation of NOX enzymes and the like. The excessively generated ROS can induce various inflammatory responses through multiple pathways. The ROS generated in this process react with the CM-H2DCFDA reagent to produce fluorescence, thereby allowing the indirect quantification of ROS.
Specifically, the SH-SY5Y cell line was treated with Compound 1aaa (Compound 1, 10 μM), apocynin (5 μM), or allopurinol (50 μM), and then with MPP+ (2 mM) or rotenone (2 μM) for 24 hours. The effect of each compound to inhibit the generation of reactive oxygen species is illustrated in FIGS. 2 and 3 as a relative percentage to that of the control group.

IL-1β = assay: Anti-inflammatory activity: Western blot of IL-1β expression in LPS-treated BV2 cells; conditions: BV2, compound 0.1, 1, 10 μg/ml, LPS (10 μg/ml), 24 hours
Protocol: (§1) To evaluate the anti-inflammatory activity of the compounds of the present invention, the morphological changes related to inflammation in cells and the suppression of the expression of inflammatory proteins (IL-1R and COX2) were assessed.
(§2) Specifically, BV2 cell lines were treated with compound 1aaa (0.1, 1, 10 μg/ml) for 2 hours, followed by treatment with LPS (10 μg/ml), and then cultured for 24 hours. Additionally, Western blot analysis was performed to analyze the expression of inflammatory proteins, and the results are shown in FIGS. 8 and 9.

Nrf-2 = Nrf-2 induction, Western blot of nuclear fraction; conditions: SH-SY5Y, compound 10 μM, 24 hours, increase
Protocol: When oxidative stress caused by reactive oxygen species increases in cells, the synthesis of antioxidants increases in response to this. One of the transcription factors mediating this antioxidant response is Nrf-2. As the transcription factor Nrf-2 enters the nucleus and the expression of genes related to antioxidation increases, the antioxidant capacity of cells increases,
Specifically, the SH-SY5Y cell line was exposed to Compound 1aaa (Compound 1, 10 μM) for 24 hours and then the cells were taken. Thereafter, the nuclear fraction was extracted, then Western blotting was performed to analyze the amount of Nrf-2 in the nucleus, and the results are illustrated in FIG. 6.

BV2 cell lines = assay: Anti-inflammatory activity: morphological changes of LPS-treated BV2 cells; conditions: compound 0.1, 1, 10 μg/ml for 2 hours, then LPS (10 μg/ml), 24 hours
Protocol: as §1, §2

COX2 = assay: Anti-inflammatory activity: Western blot of COX2 expression in LPS-treated BV2 cells; conditions: BV2, compound 0.1, 1, 10 μg/ml, LPS (10 μg/ml), 24 hours
Protocol: as §1, §2

Row | SMILES | cell viability after MPP+ (SH-SY5Y cell line [1]) | cell viability after rotenone (SH-SY5Y cell line [1]) | generation of reactive oxygen species after MPP+ (SH-SY5Y cell line [2]; MPP+ (2 mM) 24 hours) | generation of reactive oxygen species after rotenone (SH-SY5Y cell line [2]; rotenone (2 μM) 24 hours) | expression of IL-1β (IL-1β) | amount of Nrf-2 in the nucleus (Nrf-2) | activation of BV2 macrophages (morphology) (BV2 cell lines) | expression of COX2 (COX2)
1 | CCc1ccc(N2C(=O)/C(=C\c3ccc(O)cc3O)N(C)C2=[Se])cc1 [Compound 24, 5-(2,4-dihydroxybenzylidene)-3-(4-ethylphenyl)-1-methyl-2-selenoxoimidazolidin-4-one] | improve cell viability | improve cell viability | – | – | – | – | – | –
2 | CCc1ccc(N2C(=O)/C(=C\c3cc(O)cc(O)c3)N(C)C2=[Se])cc1 [Compound 27, 5-(3,5-dihydroxybenzylidene)-3-(4-ethylphenyl)-1-methyl-2-selenoxoimidazolidin-4-one] | improve cell viability | improve cell viability | – | – | – | – | – | –
3 | CCCCCCN1C(=O)/C(=C\c2cc(O)cc(O)c2)N(C)C1=[Se] [Compound 62, 5-(3,5-dihydroxybenzylidene)-3-hexyl-1-methyl-2-selenoxoimidazolidin-4-one] | improve cell viability | improve cell viability | – | – | – | – | – | –
4 | CN1C(=[Se])N(c2ccccc2)C(=O)/C1=C\c1ccc(O)cc1O [Compound 1, 5-(2,4-dihydroxybenzylidene)-1-methyl-3-phenyl-2-selenoxoimidazolidin-4-one] | improve cell viability | improve cell viability | effectively inhibits | effectively inhibits | significantly suppressed | about 1.5 times | inhibited the activation of BV2 macrophages in a dose-dependent manner | significantly suppressed
5 | CN1C(=[Se])N(CCc2ccccc2)C(=O)/C1=C\c1cc(O)cc(O)c1 [Compound 44, 5-(3,5-dihydroxybenzylidene)-1-methyl-3-phenethyl-2-selenoxoimidazolidin-4-one] | improve cell viability | improve cell viability | – | – | – | – | – | –

— patent publication US20240358679A1, “PHARMACEUTICAL AND FOOD COMPOSITIONS FOR THE PREVENTION, ALLEVIATION, OR TREATMENT OF INFLAMMATORY DISEASES COMPRISING 1-ALKYL-5-ARYLIDENE-2-SELENOXOIMIDAZOLIDIN-4-ONE AND ITS DERIVATIVES” (priority 2022, published 2024)
